Experimental data published in patent publication US20170239173A1, “TRANSDERMAL ABSORPTION ENHANCER AND TRANSDERMAL ABSORPTION ENHANCEMENT AID” (ASAHI KASEI KABUSHIKI KAISHA, priority 2014, published 2017).
Where two headings read alike, the source gives them in different places.

Tests used:
[1] = Franz cell test of MZR preparations, artificial skin; details: equimolar salt of choline with the acidic compound b) as enhancer
Yucatan Micropig Skin = details: Non Patent Literature 1, at maximum; cited from earlier work
[2] = test system: hairless mouse skin (Laboskin)
[3] = Solubility / state of the active ingredient in the preparation (equimolar salt or enhancer); assay type: physicochemical; details: solubility of MZR in the equimolar salt of the basic compound a) with isostearic acid or linoleic acid
[4] = cited from earlier work
[5] = cited from earlier work; remark: listed apart in the source
[6] = partition coefficient between water and 1-octanol; cited from earlier work
[7] = subcutaneous administration to rats; cited from earlier work

Compound: CC(O)C(=O)O (racemic) [DL-lactic acid]
- Transdermal penetrability of MZR (artificial skin) [1]: Penetrated

Compound: Nc1nc2c(ncn2COCCO)c(=O)[nH]1 [ACV, acyclovir]
- transdermal penetration amount of ACV for 24 hours (Yucatan Micropig Skin): ≤ 0.5 μg/cm^2

Compound: O=C(O)c1ccccc1 [Benzoic acid]
- Transdermal penetrability of MZR (artificial skin) [1]: Penetrated

Compound: CC(O)CNCC(C)O (centres unmarked) [DIPA]
- Transdermal penetrability of MZR [2]: Not penetrated
- MZR dissolution [3]: Insoluble

Compound: CCCCCCCCCCCC(=O)O [Dodecanoic acid]
- pKa [4]: 5.30
- Water solubility ([5]; 20° C.): 5.5 mg/100 g (20° C.)
- Transdermal penetrability of MZR (hairless mouse) [2]: Penetrated

Compound: O=C(O)/C=C/C(=O)O [Fumaric acid]
- Water solubility ([5]; 25° C.): 0.63 g/100 mL-water

Compound: O=C(O)CCCC(=O)O [Glutaric acid]
- pKa [4]: 4.34
- pKa ([4]; second value): 5.42
- Transdermal penetrability of MZR (artificial skin) [1]: Penetrated
- Water solubility ([5]; 20° C.): 430 g/L (20° C.)

Compound: O=C(O)CO [Glycolic acid]
- Transdermal penetrability of MZR (artificial skin) [1]: Penetrated

Compound: N=C(N)N [Guanidine]
- Transdermal penetrability of MZR [2]: Penetrated
- MZR dissolution [3]: Dissolved

Compound: NCCc1c[nH]cn1 [Histamine]
- Transdermal penetrability of MZR [2]: Penetrated
- MZR dissolution [3]: Dissolved

Compound: CC(C)CCCCCCCCCCCCCCC(=O)O [Isostearic acid]
- pKa [4]: 4.90

Compound: NC(=O)c1ncn([C@@H]2O[C@H](CO)[C@@H](O)[C@H]2O)c1O [MZR, mizoribine]
- Log P [6]: −1.9
- no-observed-adverse-effect level (NOAEL) [7]: 5 mg/kg
- rate of penetration ([2]; hairless, mouse): approximately 30%

Compound: O=C(O)/C=C\C(=O)O [Maleic acid]
- Water solubility ([5]; 25° C.): 78 g/100 mL (25° C.)

Compound: CCCCCCCCCCCCCC(=O)O [Myristic acid]
- pKa [4]: 4.90
- Water solubility ([5]; at 18° C.): <0.1 g/100 mL at
- Transdermal penetrability of MZR (hairless mouse) [2]: Penetrated

Compound: CCCCCCCC/C=C\CCCCCCCC(=O)O [Oleic acid]
- Water solubility ([5]; in words): negligible
- Transdermal penetrability of MZR (hairless mouse) [2]: Penetrated

Compound: CCCCCCCCCCCCCCCC(=O)O [Palmitic acid]
- pKa [4]: 4.75

Compound: CCCCCCCCCCCCCCCCCC(=O)O [Stearic acid]
- pKa [4]: 4.75

Compound: COc1cc(C(O)C(=O)O)ccc1O (centres unmarked) [Vanillylmandelic acid]
- pKa [4]: 3.11
- Water solubility ([5]; H2O): H2O: ~50 mg/mL
- Transdermal penetrability of MZR (hairless mouse) [2]: Not penetrated

Compound: C[N+](C)(C)CCOP(=O)([O-])OC[C@H](O)CO [αGPC]
- Transdermal penetrability of MZR [2]: Not penetrated
- MZR dissolution [3]: Insoluble
